Read-outs that look alike come from different tables or passages of the source. One block for each compound: values may come before it.
Key:
Rac-1 = Rac-1 (Homo sapiens (Human), UniProt P63000); test: Rac and Rho inhibition assay; assay type: binding; settings: read-out: Rac-1 % Inh.
Protocol: (§1) Buffer-I: • 50 mM Tris, pH 7.5 • 150 mM NaCl (optional) • 1 mM MgCl2 • 1 mM DTT. • KRas G12D mutant protein was expressed as a His-tagged protein. Purified His-KRas G12D protein was diluted in buffer-I to a final concentration of 3-10 μg/ml. • 200 μl of the diluted His-KRas G12D protein was added to a nickel coated 96 well plate and incubated overnight at 4° C. • The next day, wells were washed 3× in 200 μl of Buffer-I. • Then 200 μl of Buffer-I were added to each well in the presence of 1% DMSO. • Tested compounds were added to the protein-coated wells at a concentration of 20 μM, and incubated for 3 hours at room temperature. While performing IC50 measurements a serial dilution of all tested concentrations was prepared.
(§2) Then 22 μl of Cy3-GTP or Cy5-GTP was added to each well. The labeled GTP was incubated for 45 min. at room temperature. • Following GTP incubation, wells were washed 3× in Buffer-I, and 200 μl of Buffer-I were added to each well. • Following washes, the amount of bound labeled-GTP was measured with an Eppendorf AF2200 plate reader.
(§3) By substituting KRas G12D mutant protein with either Rac-1 or Rho-A under the assay conditions described in Example 5, Rac-1 and Rho-A inhibition, respectively, were each determined.

Rho-A = Rho-A (Homo sapiens (Human), UniProt P61586); test: Rac and Rho inhibition assay; assay type: binding; settings: read-out: Rho-A % Inh.
Rho-A, sequence (P61586 whole entry): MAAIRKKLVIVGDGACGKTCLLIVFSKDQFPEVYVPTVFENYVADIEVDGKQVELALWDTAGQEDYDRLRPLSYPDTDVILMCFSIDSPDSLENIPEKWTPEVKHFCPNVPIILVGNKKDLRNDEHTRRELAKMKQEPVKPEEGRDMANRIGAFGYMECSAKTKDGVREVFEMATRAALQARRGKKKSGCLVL
Protocol: as §1, §2, §3

IL6 = test: Mouse IL6 quantification assay (LPS-stimulated RAW 264.7, ELISA); assay type: cell-based; settings: RAW 264.7 murine leukemia virus transformed macrophage cell lines, LPS stimulation; for inhibition at 30 µM: Mus musculus, RAW264.7, 30 μM, read-out: IL-6 % Inhibition at 30 μM
Protocol: (§4) Cell lines: Abelson murine leukemia virus transformed macrophage cell line RAW 264.7 was purchased from ATCC and grown in complete DMEM-High Glucose medium supplemented with penicillin (100 U/mL), streptomycin (100 μg/mL), and 10% heat-inactivated FBS at 37° C. in a humidified incubator with 5% CO2.
(§5) Method: Cells were plated at 40000 cells/well density in a 96-wells plate. After a 3-hour incubation, macrophages were starved with DMEM plus 0.5% FBS o/n. The next day the small molecules to be tested were added to the cells in the final concentration of 30 μM (with 0.3% DMSO) 3 hours prior to LPS stimulation (100 ng/ml). After LPS stimulation cells were incubated at 37° C. for 16h. At the end of the incubation period, culture media were collected and production of LPS-induced TNFα and IL6 cytokine was measured using ELISA detection kits.
(§6) Sandwich ELISA: The ELISA Immunoassays Quantikine Mouse TNF-alpha (catalog number MTA00B) and IL6 (catalog number M6000B) were purchased from R&D Systems Inc., Minneapolis, Minn. These 4.5 hours solid phase ELISAs were used to measure mouse TNFα or IL6 levels in macrophages culture supernatants. Assays were executed according to the manufacturer specifications.

TNFα = test: Mouse TNF alpha quantification assay (LPS-stimulated RAW 264.7, ELISA); assay type: cell-based; settings: RAW 264.7 murine leukemia virus transformed macrophage cell lines, LPS stimulation; for inhibition at 30 µM: Mus musculus, RAW264.7, 30 μM, read-out: TNF-α % Inhibition at 30 μM
Protocol: as §4, §5, §6

[1] = target: KRas G12D/Q61H double mutant (Homo sapiens (Human), UniProt P01116, G12D/Q61H); test: Ras GTP binding domain inhibition assay
KRas G12D/Q61H double mutant, sequence (P01116-2 other isoform, or with tags, fused parts or gaps G12D/Q61H): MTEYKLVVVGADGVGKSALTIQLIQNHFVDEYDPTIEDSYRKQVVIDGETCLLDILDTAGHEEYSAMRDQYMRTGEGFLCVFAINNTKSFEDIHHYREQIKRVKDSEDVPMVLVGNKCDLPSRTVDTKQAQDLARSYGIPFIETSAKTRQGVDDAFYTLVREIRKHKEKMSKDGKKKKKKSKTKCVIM
Protocol: as §1, §2
By substituting KRas G12D mutant protein with KRas G12C mutant, KRas wild type, KRas Q61H mutant, KRas G12D/Q61H double mutant or KRas G12C/Q61H double mutant under the assay conditions described above, KRas G12C mutant KRas wild type, KRas Q61H mutant, KRas G12D/Q61H double mutant and KRas G12C/Q61H double mutant inhibition, respectively, were each determined.

[2] = 20 μM compound, read-out: % Inhibition at 20 μM, KRas G12D Q61H
[3] = 20 μM, read-out: KRas G12D Q61H % Inh.
[4] = at 20 μM, read-out: KRas G12D Q61H % Inh.

Compound: Oc1nc(-c2ccccn2)nc2c(-c3cnc4ccccc4c3)csc12
- inhibition at 20 µM (Rac-1): 51 to 75%
- inhibition at 20 µM (Rho-A): 51 to 75%

Compound: O=C(NCCc1cnc(O)nc1)c1csc2nc(-c3ccccn3)nc(N3CCSCC3)c12 [drawing 2281]
- inhibition at 30 µM (IL6): 51 to 75%
- inhibition at 30 µM (TNFα): 0%

- inhibition at 20 µM [1, 2]: 25 to 50%
Compound: FC(F)(F)c1cccc(N2CCN(c3cc(Cl)nc4ncnn34)CC2)c1

Compound: O=c1nc(-c2ccccn2)[nH]c2ccsc12
- inhibition at 20 µM [1, 3]: 51 to 75%

- inhibition at 20 µM [1, 2]: 1 to 25%
Compound: CCOC(=O)c1cnc(N(C2CC2)S(=O)(=O)c2ccc(OC)c(C)c2)s1

Compound: Cc1c(C(=O)N2CCN(c3ccccc3)CC2)sc2c(O)nc(-c3ccccn3)nc12
- inhibition at 20 µM (Rho-A): 76 to 100%

- inhibition at 20 µM [1, 2]: 25 to 50%
Compound: CCOc1ccc(C(F)(F)F)cc1NCc1ncc(C)o1

Compound: O=C(c1csc2c(O)nc(-c3ccccn3)nc12)N1CCNC(c2ccc(O)cc2)C1 (stereo not drawn)
- inhibition at 20 µM (Rac-1): 76 to 100%
- inhibition at 20 µM (Rho-A): 76 to 100%

Compound: CC(C)COc1ccc(-c2csc3c(O)nc(-c4ccccn4)nc23)cn1
- inhibition at 20 µM (Rac-1): 76 to 100%

Compound: Nc1cccc(-c2csc3c(N)nc(-c4ccccn4)nc23)n1
- inhibition at 30 µM (IL6): 76 to 100%
- inhibition at 30 µM (TNFα): 26 to 50%

- inhibition at 20 µM [1, 2]: 25 to 50%
Compound: O=C1C2C=CC=CC2OC(O)C1Cc1cc(Cl)c2cccnc2c1O (stereo not drawn)

Compound: Cn1cc(-c2nc(C(=O)Nc3nnc(-c4ccccn4)[nH]3)cs2)cn1
- inhibition at 30 µM (TNFα): 0%

Compound: COC(=O)c1c(C)sc2nc(-c3ccccn3)nc(N)c12
- inhibition at 20 µM (Rac-1): 25 to 50%
- inhibition at 20 µM (Rho-A): 51 to 75%

- inhibition at 20 µM (Rac-1): 1 to 25%
- inhibition at 20 µM (Rho-A): 1 to 25%
- inhibition at 20 µM [1, 4]: 1 to 25%
Compound: COCCCCNC(=O)c1csc2nc(-c3ccccn3)nc(O)c12

- inhibition at 20 µM (Rac-1): 51 to 75%
- inhibition at 20 µM (Rho-A): 76 to 100%
- inhibition at 20 µM [1, 4]: 51 to 75%
Compound: CCC1N=C(C)C=C1c1csc2c(O)nc(-c3ccccn3)nc12 (stereo not drawn)

Compound: CN(C)CCOc1cccc(-c2csc3c(O)nc(-c4ccccn4)nc23)c1
- inhibition at 20 µM (Rac-1): 76 to 100%
- inhibition at 20 µM (Rho-A): 76 to 100%

Compound: Cc1cc2nc(-c3ccccn3)nc(O)c2s1 [drawing 3817]
- inhibition at 20 µM (Rac-1): 76 to 100%
- inhibition at 20 µM (Rho-A): 76 to 100%

Compound: Cc1ccc(CC(=O)Nc2nnc(-c3ccccn3)[nH]2)cc1
- inhibition at 30 µM (IL6): 51 to 75%

Compound: Nc1nc(-c2ccccn2)nc2c(C3CCCCC3)csc12
- inhibition at 30 µM (IL6): 0%
- inhibition at 30 µM (TNFα): 0%

- inhibition at 20 µM [1, 2]: 25 to 50%
Compound: CCC1=CC2C(=O)NC(c3ccccn3)=NC2S1 (stereo not drawn)

Compound: Cc1sc2c(N)nc(-c3ccccn3)nc2c1-c1ccccc1Cl
- inhibition at 30 µM (IL6): 51 to 75%
- inhibition at 30 µM (TNFα): 51 to 75%

Compound: CCC(C)c1csc2c(OC)nc(-c3ccccn3)nc12 (stereo not drawn)
- inhibition at 20 µM (Rac-1): 76 to 100%

Compound: CC(C)Cc1csc2c(N)nc(-c3ccccn3)nc12
- inhibition at 30 µM (IL6): 76 to 100%
- inhibition at 30 µM (TNFα): 76 to 100%

Compound: OC[C@H]1O[C@@H](c2csc3c2N=C(c2ccccn2)NC3O)[C@H](O)[C@@H]1O (stereo partly drawn) [drawing 2388]
- inhibition at 30 µM (IL6): 1 to 25%
- inhibition at 30 µM (TNFα): 26 to 50%

- inhibition at 20 µM [1, 3]: 51 to 75%
Compound: CCOC(=O)c1ccnc(N2CCC(C)CC2c2ccc(CC)o2)c1[N+](=O)[O-] (stereo not drawn)

- inhibition at 20 µM [1, 2]: 25 to 50%
Compound: O=c1[nH]c(-c2cncc(OCC(F)F)c2)nc2cc(F)c(F)cc12

Compound: Cc1sc2c(O)nc(-c3ccccn3)nc2c1-c1ccccc1
- IL-6 % Inhibition at 30 μM (IL6; 30 μM): C (C = 51-75% inhibition)
- TNF-α % Inhibition at 30 μM (TNFα; 30 μM): A (A = 1-25% inhibition)

Compound: Nc1nc(-c2ccccn2)nc2c(C3CCCC3)csc12
- inhibition at 30 µM (IL6): 51 to 75%
- inhibition at 30 µM (TNFα): 26 to 50%

Compound: COCCNc1nc(-c2nccn2C)nc2sc(-c3ccccc3)c(-c3ccccc3)c12 [drawing 3879]
- inhibition at 20 µM (Rac-1): 76 to 100%
- inhibition at 20 µM (Rho-A): 51 to 75%

- inhibition at 20 µM [1, 3]: 51 to 75%
Compound: O=[N+]([O-])c1cc(C(F)(F)F)ccc1Sc1nc2c(c(C(F)(F)F)n1)CCCC2
